Experimental data from ChEMBL document CHEMBL1201862, “PubChem BioAssay data set” (2004).
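A five-concentration, 48-hour dose response in 96-well plates underlies each endpoint, interpolated linearly between surrounding concentrations. Abbreviation: GI50, concentration required for 50% inhibition of growth.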 The source made the active and inactive calls. Cut-off read from the data, not from the text of the source: active = GI50 up to about 1.1 µM and inactive = higher.

What was measured:
Experiment in all cases: NCI tumour cell line growth inhibition, 48 h
HOP-92 = test system: HOP-92
MOLT-4 = test system: MOLT-4
RPMI-8226 = test system: RPMI-8226
KM12 = test system: KM12
COLO 205 = test system: COLO 205
SK-MEL-2 = test system: SK-MEL-2
K562 = test system: K562
A549 = test system: A549
SF-295 = test system: SF-295
SW-620 = test system: SW-620
IGROV-1 = test system: IGROV-1
SK-OV-3 = test system: SK-OV-3
CCRF-CEM = test system: CCRF-CEM
OVCAR-4 = test system: OVCAR-4
SF-539 = test system: SF-539
NCI-H460 = test system: NCI-H460
SK-MEL-28 = test system: SK-MEL-28
HCC 2998 = test system: HCC 2998
RXF 393 = test system: RXF 393

Measured: GI50

Nc1ncnc2c1ncn2C1OC(CSC(F)(F)F)C(O)C1O (configuration not stated)
inactive: HOP-92 > 100 µM | MOLT-4 > 100 µM | RPMI-8226 > 100 µM | KM12 > 100 µM | COLO 205 > 100 µM | SK-MEL-2 > 100 µM | K562 > 100 µM | A549 > 100 µM | SF-295 > 100 µM | SW-620 > 100 µM | IGROV-1 > 100 µM | SK-OV-3 > 100 µM | CCRF-CEM > 100 µM | OVCAR-4 > 100 µM | SF-539 > 100 µM | NCI-H460 > 100 µM | SK-MEL-28 > 100 µM | HCC 2998 > 100 µM

Cc1cc2c(C=O)n[nH]c2c(C#N)c1C
inactive: HOP-92 31.3 µM | MOLT-4 > 100 µM | RPMI-8226 > 100 µM | KM12 34.7 µM | COLO 205 > 100 µM | SK-MEL-2 > 100 µM | K562 > 100 µM | A549 > 100 µM | SF-295 44.1 µM | SW-620 40.6 µM | IGROV-1 67 µM | SK-OV-3 > 100 µM | CCRF-CEM > 100 µM | OVCAR-4 29.2 µM | SF-539 27.7 µM | NCI-H460 46.6 µM | SK-MEL-28 48.4 µM | HCC 2998 > 100 µM

Cc1c2nc3ccccc3sc-2cc(=O)c1C
inactive: HOP-92 > 65.9 µM | MOLT-4 34.5 µM | RPMI-8226 39.8 µM | KM12 76.6 µM | COLO 205 34.7 µM | SK-MEL-2 14.4 µM | K562 24.3 µM | A549 48.8 µM | SF-295 61.2 µM | SW-620 > 90.2 µM | IGROV-1 > 56.2 µM | SK-OV-3 > 100 µM | CCRF-CEM 20.9 µM | OVCAR-4 65.3 µM | RXF 393 90.8 µM | SF-539 44.9 µM | NCI-H460 12.4 µM | HCC 2998 > 100 µM

COc1ccc2cc3n(c2c1)CCc1cc(OC)c(OC)cc1-3
inactive: HOP-92 > 100 µM | MOLT-4 > 100 µM | KM12 > 100 µM | COLO 205 > 100 µM | SK-MEL-2 > 100 µM | K562 > 100 µM | A549 > 100 µM | SF-295 51.2 µM | SW-620 > 100 µM | IGROV-1 > 100 µM | SK-OV-3 > 100 µM | CCRF-CEM > 100 µM | OVCAR-4 45.9 µM | RXF 393 > 100 µM | SF-539 > 100 µM | NCI-H460 > 100 µM | SK-MEL-28 > 100 µM | HCC 2998 > 100 µM

CC/C(=N/O)c1ccc2[nH]c3c(C)cc([N+](=O)[O-])c(C)c3c2c1
inactive: MOLT-4 29.6 µM | RPMI-8226 52.7 µM | KM12 37.4 µM | COLO 205 71.4 µM | SK-MEL-2 > 100 µM | K562 20.1 µM | A549 17.1 µM | SF-295 52 µM | SW-620 84.7 µM | CCRF-CEM 15.1 µM | OVCAR-4 87.9 µM | SF-539 51.5 µM | NCI-H460 39.2 µM | SK-MEL-28 > 100 µM | HCC 2998 83.8 µM

O=C(CC(=O)c1cccc([N+](=O)[O-])c1)C(=O)Nc1ccccc1
inactive: HOP-92 > 100 µM | MOLT-4 > 100 µM | RPMI-8226 > 100 µM | KM12 > 100 µM | SK-MEL-2 > 100 µM | K562 > 100 µM | A549 > 100 µM | SF-295 > 100 µM | SW-620 > 100 µM | IGROV-1 > 100 µM | CCRF-CEM > 100 µM | OVCAR-4 > 100 µM | RXF 393 > 100 µM | SF-539 > 100 µM | NCI-H460 > 100 µM | SK-MEL-28 > 100 µM | HCC 2998 > 100 µM

CCN(CC)C(=O)c1cccc2c(OC)ccc(OC)c12
inactive: MOLT-4 > 100 µM | RPMI-8226 > 100 µM | KM12 > 100 µM | COLO 205 > 100 µM | SK-MEL-2 > 100 µM | K562 > 100 µM | A549 > 100 µM | SF-295 > 100 µM | SW-620 > 100 µM | IGROV-1 > 100 µM | SK-OV-3 > 100 µM | CCRF-CEM > 100 µM | OVCAR-4 > 100 µM | RXF 393 > 100 µM | NCI-H460 > 100 µM | SK-MEL-28 > 100 µM | HCC 2998 > 100 µM

CCOC(=O)/C(=C/c1ccc(C(=O)OC)cc1)N(CC)CC
inactive: HOP-92 49.9 µM | MOLT-4 29.1 µM | RPMI-8226 42.5 µM | KM12 41.3 µM | COLO 205 70.1 µM | SK-MEL-2 44.9 µM | K562 26.2 µM | A549 24.5 µM | SF-295 > 10 µM | SW-620 35.3 µM | IGROV-1 > 100 µM | SK-OV-3 50.5 µM | CCRF-CEM 30.6 µM | OVCAR-4 48.2 µM | SF-539 25.3 µM | SK-MEL-28 > 100 µM | HCC 2998 99.5 µM

[N-]=[N+]=NCC(O)Cn1cnc2c(NC(=O)c3ccccc3)ncnc21 (configuration not stated)
inactive: HOP-92 > 100 µM | MOLT-4 > 100 µM | RPMI-8226 > 100 µM | KM12 > 100 µM | COLO 205 27.8 µM | SK-MEL-2 > 100 µM | K562 79.4 µM | A549 > 100 µM | SF-295 > 100 µM | SW-620 43.8 µM | IGROV-1 > 100 µM | CCRF-CEM > 100 µM | OVCAR-4 > 100 µM | RXF 393 > 100 µM | SF-539 > 100 µM | NCI-H460 > 100 µM | SK-MEL-28 > 100 µM | HCC 2998 > 100 µM

O=C(CC(C(=O)c1ccoc1)c1ccco1)c1ccco1 (configuration not stated)
inactive: HOP-92 > 100 µM | MOLT-4 > 100 µM | RPMI-8226 > 100 µM | KM12 57 µM | COLO 205 > 100 µM | K562 > 100 µM | A549 79.6 µM | SF-295 > 100 µM | SW-620 > 100 µM | IGROV-1 > 100 µM | SK-OV-3 > 100 µM | CCRF-CEM 24.2 µM | OVCAR-4 43.1 µM | RXF 393 > 100 µM | SF-539 > 100 µM | NCI-H460 > 100 µM | SK-MEL-28 37.9 µM | HCC 2998 > 100 µM

CN[C@@H](C)[C@@H](N)c1ccccc1
inactive: HOP-92 > 100 µM | MOLT-4 > 100 µM | RPMI-8226 > 100 µM | COLO 205 > 100 µM | K562 > 100 µM | A549 > 100 µM | SF-295 > 100 µM | SW-620 > 100 µM | IGROV-1 > 100 µM | SK-OV-3 > 100 µM | CCRF-CEM > 100 µM | RXF 393 > 100 µM | SF-539 > 100 µM | NCI-H460 > 100 µM | SK-MEL-28 > 100 µM | HCC 2998 > 100 µM

COc1ccc(CC2NCCc3cc(OC)c(OC)cc32)cc1 (configuration not stated)
inactive: HOP-92 57.4 µM | MOLT-4 > 100 µM | RPMI-8226 > 100 µM | KM12 > 100 µM | COLO 205 > 100 µM | SK-MEL-2 > 100 µM | A549 > 100 µM | SF-295 > 100 µM | SW-620 > 100 µM | IGROV-1 > 100 µM | SK-OV-3 > 100 µM | CCRF-CEM > 100 µM | OVCAR-4 > 100 µM | RXF 393 > 100 µM | SF-539 > 100 µM | NCI-H460 > 100 µM | SK-MEL-28 > 100 µM | HCC 2998 > 100 µM

CS(=O)(=O)NNS(=O)(=O)c1ccccc1
inactive: MOLT-4 > 100 µM | RPMI-8226 > 100 µM | KM12 > 100 µM | COLO 205 > 100 µM | SK-MEL-2 > 100 µM | K562 > 100 µM | A549 > 100 µM | SF-295 > 100 µM | SW-620 > 100 µM | IGROV-1 > 100 µM | CCRF-CEM > 100 µM | OVCAR-4 > 100 µM | RXF 393 > 100 µM | SF-539 > 100 µM | NCI-H460 > 100 µM | HCC 2998 > 100 µM

c1ccc2c(OCCSCCCCCCCCCCSCCOc3cccc4ccccc34)cccc2c1
inactive: HOP-92 > 100 µM | MOLT-4 > 100 µM | RPMI-8226 > 100 µM | KM12 > 100 µM | COLO 205 > 100 µM | SK-MEL-2 > 100 µM | K562 > 100 µM | A549 > 100 µM | SF-295 > 100 µM | SW-620 > 100 µM | IGROV-1 > 100 µM | SK-OV-3 > 100 µM | CCRF-CEM > 100 µM | RXF 393 > 100 µM | SF-539 > 100 µM | NCI-H460 > 100 µM | SK-MEL-28 > 100 µM | HCC 2998 > 100 µM

Nc1ccc2nc(NCc3ccc(F)cc3)cnc2c1
inactive: MOLT-4 50.1 µM | RPMI-8226 > 100 µM | KM12 > 100 µM | COLO 205 > 100 µM | SK-MEL-2 > 100 µM | K562 > 100 µM | A549 > 100 µM | SF-295 > 100 µM | SW-620 > 100 µM | IGROV-1 > 100 µM | CCRF-CEM > 100 µM | OVCAR-4 > 100 µM | RXF 393 59.6 µM | SF-539 79.3 µM | NCI-H460 > 100 µM | SK-MEL-28 > 100 µM | HCC 2998 > 100 µM

C[Si](C)(C)/C(Br)=C\CCN1C(=O)CCC1=O
inactive: HOP-92 > 100 µM | MOLT-4 > 100 µM | KM12 > 100 µM | COLO 205 > 100 µM | SK-MEL-2 > 100 µM | K562 > 100 µM | A549 > 100 µM | SF-295 > 100 µM | SW-620 > 100 µM | IGROV-1 > 100 µM | SK-OV-3 > 100 µM | CCRF-CEM > 100 µM | OVCAR-4 > 100 µM | RXF 393 > 100 µM | SF-539 > 100 µM | NCI-H460 > 100 µM | SK-MEL-28 > 100 µM | HCC 2998 > 100 µM
